Measurements published in ChEMBL document CHEMBL4609996, “Discovery of a novel 2,3-dimethylimidazo[1,2-a]pyrazine-6-carboxamide M4 positive allosteric modulator (PAM) chemotype” (Bioorg Med Chem Lett, 2020).
One block for each compound: values may come before it.

How the values were obtained:
[1] = Hepatic clearance in human; type: ADME
[2] = Unbound brain-to-plasma concentration ratio in rat; type: ADME, cell-free; conditions: read-out: K(p,uu,brain)
[3] = Unbound fraction in human plasma; type: ADME, cell-free
[4] = Unbound fraction in rat brain; type: ADME, tissue-based
[5] = Brain to plasma permeability coefficient, Kp of the compound in rat; type: ADME, cell-free
[6] = Unbound fraction in rat plasma; type: ADME, cell-free
[7] = Hepatic clearance in rat; type: ADME; conditions: in vivo
[8] = molecular target: T1, Muscarinic acetylcholine receptor M4 (Homo sapiens, UniProt P08173); experiment: Positive allosteric modulation of human muscarinic M4 receptor expressed in CHO cells co-expressing Gqi5 assessed as increase in acetylcholine-induced calcium mobilization; type: functional, cell-based
T1 sequence (P08173 whole entry): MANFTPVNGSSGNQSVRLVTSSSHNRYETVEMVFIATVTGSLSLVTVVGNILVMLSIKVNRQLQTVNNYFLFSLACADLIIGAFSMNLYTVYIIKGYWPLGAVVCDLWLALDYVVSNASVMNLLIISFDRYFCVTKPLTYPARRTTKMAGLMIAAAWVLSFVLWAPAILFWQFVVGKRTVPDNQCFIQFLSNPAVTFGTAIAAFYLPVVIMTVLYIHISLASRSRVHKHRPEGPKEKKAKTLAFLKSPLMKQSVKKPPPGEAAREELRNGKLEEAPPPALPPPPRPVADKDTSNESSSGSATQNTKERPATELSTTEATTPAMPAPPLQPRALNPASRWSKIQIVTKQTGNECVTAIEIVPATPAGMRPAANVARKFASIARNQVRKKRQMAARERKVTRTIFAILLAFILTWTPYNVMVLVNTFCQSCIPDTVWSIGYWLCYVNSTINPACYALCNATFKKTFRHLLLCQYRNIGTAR

[9] = Intrinsic clearance in rat microsomes; type: ADME, Microsome
[10] = Intrinsic clearance in human microsomes; type: ADME, Microsome
[11] = molecular target: T2, Muscarinic acetylcholine receptor M4 (Rattus norvegicus, UniProt P08485); experiment: Positive allosteric modulation of rat muscarinic M4 receptor
T2 sequence (P08485 whole entry): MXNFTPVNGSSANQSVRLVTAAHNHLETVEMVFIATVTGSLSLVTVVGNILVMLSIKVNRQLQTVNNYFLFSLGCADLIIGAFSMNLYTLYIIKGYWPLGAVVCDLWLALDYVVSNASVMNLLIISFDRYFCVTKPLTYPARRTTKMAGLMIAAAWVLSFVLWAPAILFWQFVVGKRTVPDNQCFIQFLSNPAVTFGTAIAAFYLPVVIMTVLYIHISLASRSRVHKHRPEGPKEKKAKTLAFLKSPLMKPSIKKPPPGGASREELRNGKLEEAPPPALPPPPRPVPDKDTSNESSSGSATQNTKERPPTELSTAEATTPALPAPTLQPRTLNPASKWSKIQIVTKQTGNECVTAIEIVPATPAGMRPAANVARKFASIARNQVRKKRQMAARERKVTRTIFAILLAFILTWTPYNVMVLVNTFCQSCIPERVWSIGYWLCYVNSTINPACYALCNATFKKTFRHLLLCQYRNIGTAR

Structure (SMILES): Cn1nnc2ccc(C(=O)NC3CN(c4cc(Cl)ncc4Cl)C3)cc21
CLH [1]: 21 mL/min/kg
Kp uu [2]: < 0.11
fraction unbound [3]: 0.132
fraction unbound [4]: 0.053
Kp [5]: < 0.05
fraction unbound [6]: 0.024
CLH [7]: 8.7 mL/min/kg

Structure (SMILES): Cc1c2cc(F)c(C(=O)NC3CN(c4cc(Cl)ncc4Cl)C3)cc2nn1C
EC50 ([8]; cho): Not Active

Structure (SMILES): Cn1nc2ccc(C(=O)NC3CN(c4cc(Cl)ncc4Cl)C3)cc2c1C1CC1
EC50 ([8]; cho): Not Active

Structure (SMILES): COc1cc(N2CC(NC(=O)c3cn4c(C)c(C)nc4cn3)C2)c(Cl)cn1
CLint scaled [9]: 83 mL/min/kg
Kp uu [2]: < 1.33
fraction unbound [3]: 0.045
fraction unbound [4]: 0.021
Kp [5]: < 1.08
CLint scaled [10]: 25 mL/min/kg
fraction unbound [6]: 0.017
EC50 [11]: 295 nM

Structure (SMILES): COc1cc(N2CC(NC(=O)c3ccc4snc(C)c4c3)C2)c(Cl)cn1
EC50 ([8]; cho): Not Active

Structure (SMILES): Cc1c2cc(C(=O)NC3CN(c4cc(Cl)ncc4Cl)C3)ncc2nn1C
CLint scaled [9]: 59 mL/min/kg
Kp uu [2]: 0.41
fraction unbound [3]: 0.014
fraction unbound [4]: 0.03
Kp [5]: 0.3
CLint scaled [10]: 26 mL/min/kg
fraction unbound [6]: 0.022
EC50 [11]: 331 nM

Structure (SMILES): Cn1c(C(F)(F)F)nc2ccc(C(=O)NC3CN(c4cc(Cl)ncc4Cl)C3)cc21
EC50 [11]: 378 nM

Structure (SMILES): COc1cc(N2CC(NC(=O)c3cc4c(C)n(C)nc4cn3)C2)c(Cl)cn1
CLint scaled [9]: 33 mL/min/kg
Kp uu [2]: 0.97
fraction unbound [3]: 0.017
fraction unbound [4]: 0.032
Kp [5]: 0.67
CLint scaled [10]: 28 mL/min/kg
fraction unbound [6]: 0.022
EC50 [11]: 339 nM

Structure (SMILES): Cn1nc2ccc(C(=O)NC3CN(c4cc(Cl)ncc4Cl)C3)cc2c1C(F)F
EC50 ([8]; cho): Not Active

Structure (SMILES): COc1cc(N2CC(NC(=O)c3ccc4onc(C)c4c3)C2)c(Cl)cn1
EC50 ([8]; cho): Not Active

Structure (SMILES): COc1cc(N2CC(NC(=O)c3ccc4c(c3)c(C)nn4C)C2)c(Cl)cn1
EC50 ([8]; cho): Not Active

Structure (SMILES): COc1cc(N2CC(NC(=O)c3cc4nn(C)c(C)c4cc3F)C2)c(Cl)cn1
EC50 ([8]; cho): Not Active

Structure (SMILES): Cn1nc2ccc(C(=O)NC3CN(c4cc(Cl)ncc4Cl)C3)cc2c1C(F)(F)F
EC50 ([8]; cho): Not Active

Structure (SMILES): COc1cc(N2CC(NC(=O)c3ccc4sc(C)nc4c3)C2)c(Cl)cn1
EC50 ([8]; cho): Not Active

Structure (SMILES): COc1cc(N2CC(NC(=O)c3ccc4nn(C)c(C)c4n3)C2)c(Cl)cn1
EC50 ([8]; cho): Not Active

Structure (SMILES): COc1cc(N2CC(NC(=O)c3ccc4nc(C)c(C)n4n3)C2)c(Cl)cn1
EC50 ([8]; cho): Not Active

Structure (SMILES): Cc1nn(C)c2cnc(C(=O)NC3CN(c4cc(Cl)ncc4Cl)C3)cc12
CLint scaled [9]: 85 mL/min/kg
Kp uu [2]: < 0.45
fraction unbound [3]: 0.039
fraction unbound [4]: 0.021
Kp [5]: < 0.24
CLint scaled [10]: 28 mL/min/kg
fraction unbound [6]: 0.011

Other lines, results leading:

CLH [1]: 13 mL/min/kg
Kp uu [2]: 0.04
fraction unbound [3]: 0.043
fraction unbound [4]: 0.032
Kp [5]: 0.05
fraction unbound [6]: 0.042
CLH [7]: 20 mL/min/kg
Structure (SMILES): Cc1c2cc(C(=O)NC3CN(c4cc(Cl)ncc4Cl)C3)ccc2nn1C

EC50 ([8]; cho): Not Active
Structure (SMILES): CCn1nc2ccc(C(=O)NC3CN(c4cc(Cl)ncc4Cl)C3)cc2c1C

EC50 ([8]; read-out: EC50): > 10000 nM
Structure (SMILES): COc1cc(N2CC(NC(=O)c3ccc4nnc(C)n4c3)C2)c(Cl)cn1

CLint scaled [9]: 130 mL/min/kg
Kp uu [2]: 0.21
fraction unbound [3]: 0.03
fraction unbound [4]: 0.027
Kp [5]: 0.1
CLint scaled [10]: 39 mL/min/kg
fraction unbound [6]: 0.013
EC50 [11]: 433 nM
Structure (SMILES): Cc1nc2ccc(C(=O)NC3CN(c4cc(Cl)ncc4Cl)C3)cn2c1C

EC50 ([8]; cho): Not Active
Structure (SMILES): Cc1c2nc(C(=O)NC3CN(c4cc(Cl)ncc4Cl)C3)ccc2nn1C

EC50 ([8]; cho): Not Active
Structure (SMILES): Cc1noc2ccc(C(=O)NC3CN(c4cc(Cl)ncc4Cl)C3)cc12

EC50 ([8]; read-out: EC50): > 10000 nM
Structure (SMILES): Cc1nnc2ccc(C(=O)NC3CN(c4cc(Cl)ncc4Cl)C3)cn12

EC50 ([8]; cho): Not Active
Structure (SMILES): Cc1nc2ccc(C(=O)NC3CN(c4cc(Cl)ncc4Cl)C3)nn2c1C

EC50 ([8]; cho): Not Active
Structure (SMILES): Cc1nsc2ccc(C(=O)NC3CN(c4cc(Cl)ncc4Cl)C3)cc12

CLint scaled [9]: 96 mL/min/kg
Kp uu [2]: 1.09
fraction unbound [3]: 0.04
fraction unbound [4]: 0.034
Kp [5]: 0.29
CLint scaled [10]: 33 mL/min/kg
fraction unbound [6]: 0.009
EC50 [11]: 233 nM
Structure (SMILES): Cc1nc2cnc(C(=O)NC3CN(c4cc(Cl)ncc4Cl)C3)cn2c1C
